# From US10285994B2, “Method of preventing or treating osteoporosis by neddylation inhibitor” (Chang Gung University, priority 2017, dated 2019)
# Tests used:
# RAW264.7 cells = assay type: cell-based, mouse
# Description: FIGS. 2A-2D are data collected from RAW264.7 cells respectively incubated in the medium containing sRANKL (50 ng/ml) and specified concentrations of MLN4924 for 7 days according to example 1.2 of the present disclosure. FIG. 2A: the photographs of TRAP staining depicting the differentiation of osteoclasts from RAW264.7 cells. FIG. 2B: after the differentiation of osteoclasts in Corning Osteo Surface, the cells were removed, and the resorbed areas for confirming osteoclast activity were analyzed by 1% toluidine blue staining. FIG. 2C: the culture medium is subject to Biovision Cathepsin K Activity Fluorometric Assay Kit for the analysis of cathepsin K activity. FIG. 2D: the effect of effective doses of MLN4924 on the viability of RAW264.7 cells is evaluated by MTT assay. Scale bar represents 100 μm. Data are expressed as mean±SD where *p<0.05.
# In addition to BMMs, the effect of MLN4924 on macrophage cell line RAW264.7 cells was also investigated. The RAW264.7 cells were cultured in the medium containing sRANKL and MLN4924 for 7 days, then subjected to osteoclast formation evaluation by TRAP staining.
# MC3T3-E1 cells [1] = assay: Osteogenesis, Alizarin Red S stain of MC3T3-E1 cells; assay type: cell-based, mouse; conditions: MC3T3-E1, osteoblast differentiation medium, 21 days, FIG. 4B
# Description: (§1) FIGS. 4A-4B respectively depict the osteogenesis of mouse pre-osteoblast cell line MC3T3-E1 cells incubated in the differentiation medium containing specified concentrations of MLN4924 for 21 days according to example 3 of the present disclosure. FIG. 4A: the growth of MC3T3-E1 cells during osteogenesis is analyzed by crystal violet staining. FIG. 4B: the osteogenesis of MC3T3-E1 cells on day 21 is analyzed by measuring Alizarin Red S stain. Diff: osteoblast differentiation medium. MLN: MLN4924.
# (§2) The mouse pre-osteoblast cell line MC3T3-E1 cells were cultured in osteoblast differentiation medium with or without MLN4924 for 21 days.
# [2] = tested on: ovariectomized (OVX) mice; assay: Ovariectomy + sRANKL osteoporosis mouse model, micro-CT of distal femur; assay type: in vivo; conditions: 10 mg/kg i.p. once daily for 2 weeks
# Description: (§3) FIGS. 6A-6E are the data depicting the mouse model of ovariectomy-induced osteoporosis, in which the ovariectomized (OVX) mice are respectively treated with sRANKL (1 mg/Kg) in the absence or presence of MLN4924 (10 mg/Kg) according to example 5.1 of the present disclosure. FIG. 6A: Micro computed-tomography (micro-CT) three-dimensional images of the distal femurs of mice respectively treated with the indicated treatments, in which the left panels represent transaxial plane, and the right panels represent coronal plane. FIGS. 6B-6D: micro-CT measurement of trabecular bone parameters, including bone volume/total volume (FIG. 6B), trabecular number (FIG. 6C), and trabecular space (FIG. 6D). FIG. 6E: Serum level of C-telopeptide of type 1 collagen (CTX-1) in control, OVX, OVX+sRANKL, and OVX+sRANKL+MLN4924 groups. Values are expressed as mean±SD, N=6 per group. *p<0.05; **p<0.01.
# All experimental procedures were approved by the Institutional Animal Care and Use Committee of the Chang Gung Memorial Hospital at Chiayi and complied with the Guideline for the Care and Use of Laboratory Animals available through the National Academy of Sciences (IACUC number: 2013100102 and 2015103001). All efforts were made to minimize the suffering of the animals. C57BL/6J female mice (6-8 weeks old; obtained from BioLasco in Taiwan) were operated ovariectomy surgery (OVX). 48 hours later of OVX operation, sRANKL (1 mg/kg) or saline was injected intraperitoneally once daily for two days followed by intraperitoneal injection of MLN4924 (10 mg/kg) once daily for 2 weeks. Mice were sacrificed with CO2 asphyxiation, and the tibias and femurs were isolated therefrom. The tibias were subject to histochemistry assay, and the femurs were subject to bending test and tomographic analysis by MTS (Testresources, Shakopee, Minn.) and Skyscan 1272 (Bruker, Kontich, Belgium), respectively. Serum levels of cross linked C-telopeptide of type I collagen (CTX-1) (CEA665Mu) was measured by specific ELISA kit (USCN life science incorporation, Wuhan, Hubei, China).
# The mice were first treated with specified treatments before subjecting to micro-computed tomography (pCT).
# The effect of MLN4924 on trabecular bone parameters, including the bone volume/total tissue volume, trabecular number, and trabecular space in bone loss mice were then investigated, and results are presented in FIGS. 6B to 6D.
# [3] = tested on: ovariectomized (OVX) mice; assay: Serum CTX-1 ELISA in OVX + sRANKL mice; assay type: in vivo, mouse; conditions: 10 mg/kg i.p. once daily for 2 weeks, FIG. 6E
# Description: as §3, with “FIG. 6E: Serum level of C-telopeptide of type 1 collagen (CTX-1) in control, OVX, OVX+sRANKL, and OVX+sRANKL+MLN4924 groups.” left out
# All experimental procedures were approved by the Institutional Animal Care and Use Committee of the Chang Gung Memorial Hospital at Chiayi and complied with the Guideline for the Care and Use of Laboratory Animals available through the National Academy of Sciences (IACUC number: 2013100102 and 2015103001). […] Serum levels of cross linked C-telopeptide of type I collagen (CTX-1) (CEA665Mu) was measured by specific ELISA kit (USCN life science incorporation, Wuhan, Hubei, China).
# Since CTX-1 serve as the biomarker for bone resorption, the level of CTX-1 in the serum of mice receiving specified treatments were then determined.
# [4] = tested on: primary mouse bone marrow-derived macrophages (BMMs); assay: Viability of BMMs (WST / MTT assay); assay type: cell-based; conditions: doses that inhibit osteoclast differentiation, FIG. 1D
# Description: FIGS. 1A-1D are data collected from primary mouse bone marrow-derived macrophages (BMMs) respectively incubated in the medium containing the soluble recombinant RANKL (sRANKL, 50 ng/ml), macrophage colony-stimulating factor (M-CSF, 40 ng/ml) and specified concentrations of MLN4924 for 7 days according to example 1.1 of the present disclosure. FIG. 1A: the photographs of TRAP staining depicting the differentiation of osteoclasts from BMMs. FIG. 1B: after the differentiation of osteoclasts in Corning Osteo Surface (a synthetic 3-dimensional structure that mimics in vivo bone for in vitro bone cell assays), the cells were removed, and the resorbed areas for confirming osteoclast activity were analyzed by 1% toluidine blue staining. FIG. 1C: the culture medium is subject to Biovision Cathepsin K Activity Fluorometric Assay Kit for the analysis of cathepsin K activity. FIG. 1D: the effect of effective doses of MLN4924 on the viability of BMMs is evaluated by MTT assay. Scale bar represents 100 μm. Data are expressed as mean±SD where *p<0.05; **p<0.01. Next, the WST assay was used to determine whether the suppressed osteoclastogenesis by MLN4924 was caused by cytotoxicity.
# MC3T3-E1 cells [5] = assay: Osteoblast survival, crystal violet staining of MC3T3-E1 cells; assay type: cell-based, mouse; conditions: MC3T3-E1, osteoblast differentiation medium, 21 days, FIG. 4A
# Description: as §1, §2
smiles,measurement,setting,value
"NS(=O)(=O)OC[C@@H]1C[C@@H](n2ccc3c(N[C@H]4CCc5ccccc54)ncnc32)C[C@@H]1O [MLN4924, (1S,2S,4R)-4-(4-((1S)-2,3-Dihydro-1H-inden-1-ylamino)-7H-pyrrolo(2,3-d)pyrimidin-7-yl)-2-hydroxycyclopentyl) methyl sulphamate]",cell viability of RAW264.7 cells,RAW264.7 cells,did not affect cell viability
same,differentiation of osteoblasts (Alizarin Red S),MC3T3-E1 cells [1],"neither the survival of osteoblasts (FIG. 4A), nor the differentiation of osteoblasts (FIG. 4B) was affected"
same,trabecular bone loss at distal femoral metaphysis (micro-CT images),[2]; FIG. 6A,could rescue the trabecular bone loss caused by OVX+sRANKL treatment
same,bone volume/total tissue volume,"[2]; vs OVX+sRANKL group, FIG. 6B",significantly rescued the sRANKL-mediated trabecular bone loss
same,trabecular number,"[2]; vs OVX+sRANKL group, FIG. 6C",significantly rescued the sRANKL-mediated trabecular bone loss
same,trabecular space,"[2]; vs OVX+sRANKL group, FIG. 6D",significantly rescued the sRANKL-mediated trabecular bone loss
same,serum CTX-1 level,[3],significantly rescued the OVX+sRANKL-stimulated serum CTX-1 level upregulation
same,cytotoxicity / viability of BMMs,[4],no cytotoxic effects at doses that effectively inhibited osteoclast differentiation
same,survival of osteoblasts (crystal violet),MC3T3-E1 cells [5],"neither the survival of osteoblasts (FIG. 4A), nor the differentiation of osteoblasts (FIG. 4B) was affected"
